According to patent US12077503B2, “Substituted cyclic amides and their use as herbicides” (FMC CORPORATION, priority 2015, dated 2024):

Legend:
Assay type in all cases: in vivo
[1] = test system: corn (Zea mays); assay: Test G Pre-Emergence Protocol; details: Zea mays, pre-emergence, 312 h, evaluated after 13 days; for plant injury at 15.625 g/ha: 15.625 g ai/ha; for plant injury at 15.625 g/ha / plant injury at 250 g/ha: read-out: Corn damage rating (100=total damage to plant; 0=no damage to plant); for plant injury at 62.5 g/ha: 62.5 g ai/ha, 100=total damage to plant, 0=no damage to plant, read-out: plant damage rating, Corn; for plant injury at 250 g/ha: 250 g ai/ha
Protocol: (§1) Seeds of corn (Zea mays), giant foxtail (Setaria faberi), barnyardgrass (Echinochloa crus-galli), ivy-leaved morning glory (Ipomoea hederacea), redroot pigweed (Amaranthus retroflexus) and velvetleaf (Abutilon theophrasti) were sown in standard soil in pots. After cultivation for one day under controlled conditions in a glasshouse (at 24/16° C., day/night; 14 hours light; 65% humidity), the plants were sprayed with an aqueous spray solution derived from the formulation of the technical active ingredient in acetone/water (50:50) solution containing 0.5% Tween 20 (polyoxyethylene sorbitan monolaurate, CAS RN 9005-64-5) to give a final dose of 15.625, 62.5 or 250 g/ha of test compound.
(§2) The test plants were then grown on under controlled conditions in a glasshouse (at 24/16° C., day/night; 14 hours light; 65% humidity) and watered twice daily. After 13 days the test was evaluated (100=total damage to plant; 0=no damage to plant). A dash (-) means no test result.

[2] = test system: giant foxtail (Setaria faberi); assay: Test G Pre-Emergence Protocol; details: Setaria faberi, pre-emergence, 312 h, evaluated after 13 days; for pest or weed control at 15.625 g/ha: 15.625 g ai/ha; for pest or weed control at 15.625 g/ha / pest or weed control at 250 g/ha: read-out: Foxtail, Giant damage rating (100=total damage to plant; 0=no damage to plant); for pest or weed control at 62.5 g/ha: 62.5 g ai/ha, 100=total damage to plant, 0=no damage to plant, read-out: plant damage rating, Foxtail, Giant; for pest or weed control at 250 g/ha: 250 g ai/ha
Protocol: as §1, §2

[3] = test system: velvetleaf (Abutilon theophrasti); assay: Test G Pre-Emergence Protocol; details: Abutilon theophrasti, pre-emergence, 312 h, evaluated after 13 days; for pest or weed control at 15.625 g/ha: 15.625 g ai/ha; for pest or weed control at 15.625 g/ha / pest or weed control at 250 g/ha: read-out: Velvetleaf damage rating (100=total damage to plant; 0=no damage to plant); for pest or weed control at 62.5 g/ha: 62.5 g ai/ha, 100=total damage to plant, 0=no damage to plant, read-out: plant damage rating, Velvetleaf; for pest or weed control at 250 g/ha: 250 g ai/ha
Protocol: as §1, §2

[4] = test system: barnyardgrass (Echinochloa crus-galli); assay: Test G Post-Emergence Protocol; details: Echinochloa crus-galli, post-emergence, 312 h; for pest or weed control at 15.625 g/ha: 15.625 g ai/ha, evaluated after 13 days (100=total damage to plant; 0=no damage to plant), read-out: Barnyardgrass damage rating; for pest or weed control at 62.5 g/ha: 62.5 g ai/ha, read-out: Barnyardgrass damage rating (100=total damage to plant; 0=no damage to plant); for pest or weed control at 62.5 g/ha / pest or weed control at 250 g/ha: evaluated after 13 days; for pest or weed control at 250 g/ha: 250 g ai/ha, read-out: damage to plant, Barnyardgrass (100=total damage to plant; 0=no damage to plant)
Protocol: as §1, with “8 days” for “one day”
as §2

[5] = test system: corn (Zea mays); assay: Test G Post-Emergence Protocol; details: Zea mays, post-emergence, 312 h; for plant injury at 15.625 g/ha: 15.625 g ai/ha, evaluated after 13 days (100=total damage to plant; 0=no damage to plant), read-out: Corn damage rating; for plant injury at 62.5 g/ha: 62.5 g ai/ha, read-out: Corn damage rating (100=total damage to plant; 0=no damage to plant); for plant injury at 62.5 g/ha / plant injury at 250 g/ha: evaluated after 13 days; for plant injury at 250 g/ha: 250 g ai/ha, read-out: damage to plant, Corn (100=total damage to plant; 0=no damage to plant)
Protocol: as §1, with “8 days” for “one day”
as §2

[6] = test system: giant foxtail (Setaria faberi); assay: Test G Post-Emergence Protocol; details: Setaria faberi, post-emergence, 312 h; for pest or weed control at 15.625 g/ha: 15.625 g ai/ha, evaluated after 13 days (100=total damage to plant; 0=no damage to plant), read-out: Foxtail, Giant damage rating; for pest or weed control at 62.5 g/ha: 62.5 g ai/ha, read-out: Foxtail, Giant damage rating (100=total damage to plant; 0=no damage to plant); for pest or weed control at 62.5 g/ha / pest or weed control at 250 g/ha: evaluated after 13 days; for pest or weed control at 250 g/ha: 250 g ai/ha, read-out: damage to plant, Foxtail, Giant (100=total damage to plant; 0=no damage to plant)
Protocol: as §1, with “8 days” for “one day”
as §2

[7] = test system: ivy-leaved morning glory (Ipomoea hederacea); assay: Test G Post-Emergence Protocol; details: Ipomoea, post-emergence, 312 h; for pest or weed control at 15.625 g/ha: 15.625 g ai/ha, evaluated after 13 days (100=total damage to plant; 0=no damage to plant), read-out: Morningglory, Ivy-leaved damage rating; for pest or weed control at 62.5 g/ha: 62.5 g ai/ha, read-out: Morningglory, Ivy-leaved damage rating (100=total damage to plant; 0=no damage to plant); for pest or weed control at 62.5 g/ha / pest or weed control at 250 g/ha: evaluated after 13 days; for pest or weed control at 250 g/ha: 250 g ai/ha, read-out: damage to plant, Morningglory, Ivy-leaved (100=total damage to plant; 0=no damage to plant)
Protocol: as §1, with “8 days” for “one day”
as §2

[8] = test system: redroot pigweed (Amaranthus retroflexus); assay: Test G Post-Emergence Protocol; details: Amaranthus retroflexus, post-emergence, 312 h; for pest or weed control at 15.625 g/ha: 15.625 g ai/ha, evaluated after 13 days (100=total damage to plant; 0=no damage to plant), read-out: Pigweed, Redroot damage rating; for pest or weed control at 62.5 g/ha: 62.5 g ai/ha, read-out: Pigweed, Redroot damage rating (100=total damage to plant; 0=no damage to plant); for pest or weed control at 62.5 g/ha / pest or weed control at 250 g/ha: evaluated after 13 days; for pest or weed control at 250 g/ha: 250 g ai/ha, read-out: damage to plant, Pigweed, Redroot (100=total damage to plant; 0=no damage to plant)
Protocol: as §1, with “8 days” for “one day”
as §2

[9] = test system: velvetleaf (Abutilon theophrasti); assay: Test G Post-Emergence Protocol; details: Abutilon theophrasti, post-emergence, 312 h; for pest or weed control at 15.625 g/ha: 15.625 g ai/ha, evaluated after 13 days (100=total damage to plant; 0=no damage to plant), read-out: Velvetleaf damage rating; for pest or weed control at 62.5 g/ha: 62.5 g ai/ha, read-out: Velvetleaf damage rating (100=total damage to plant; 0=no damage to plant); for pest or weed control at 62.5 g/ha / pest or weed control at 250 g/ha: evaluated after 13 days; for pest or weed control at 250 g/ha: 250 g ai/ha, read-out: damage to plant, Velvetleaf (100=total damage to plant; 0=no damage to plant)
Protocol: as §1, with “8 days” for “one day”
as §2

SMILES: CN1C[C@@H](c2ccc(C(F)(F)F)cc2)[C@H](C(=O)Nc2cnccc2C(F)(F)F)C1=O (racemic) [Compound 1401]
- plant injury at 15.625 g/ha [1]: 0%
- plant injury at 62.5 g/ha [1]: 10%
- plant injury at 250 g/ha [1]: 20%
- pest or weed control at 15.625 g/ha [2]: 40%
- pest or weed control at 62.5 g/ha [2]: 70%
- pest or weed control at 250 g/ha [2]: 90%
- pest or weed control at 15.625 g/ha [3]: 0%
- pest or weed control at 62.5 g/ha [3]: 30%
- pest or weed control at 250 g/ha [3]: 70%
- pest or weed control at 15.625 g/ha [4]: 0%
- pest or weed control at 62.5 g/ha [4]: 20%
- pest or weed control at 250 g/ha [4]: 50%
- plant injury at 15.625 g/ha [5]: 0%
- plant injury at 62.5 g/ha [5]: 0%
- plant injury at 250 g/ha [5]: 50%
- pest or weed control at 15.625 g/ha [6]: 0%
- pest or weed control at 62.5 g/ha [6]: 60%
- pest or weed control at 250 g/ha [6]: 70%
- pest or weed control at 15.625 g/ha [7]: 0%
- pest or weed control at 62.5 g/ha [7]: 0%
- pest or weed control at 250 g/ha [7]: 30%
- pest or weed control at 15.625 g/ha [8]: 0%
- pest or weed control at 62.5 g/ha [8]: 0%
- pest or weed control at 250 g/ha [8]: 30%
- pest or weed control at 15.625 g/ha [9]: 0%
- pest or weed control at 62.5 g/ha [9]: 20%
- pest or weed control at 250 g/ha [9]: 30%

SMILES: CN1C[C@H](c2cccc(C(C)(C)C#N)c2)[C@@H](C(=O)Nc2cccc(F)c2F)C1=O (racemic) [Compound 1497]
- plant injury at 15.625 g/ha [1]: 0%
- plant injury at 62.5 g/ha [1]: 0%
- plant injury at 250 g/ha [1]: 10%
- pest or weed control at 15.625 g/ha [2]: 0%
- pest or weed control at 62.5 g/ha [2]: 60%
- pest or weed control at 250 g/ha [2]: 80%
- pest or weed control at 15.625 g/ha [3]: 0%
- pest or weed control at 62.5 g/ha [3]: 0%
- pest or weed control at 250 g/ha [3]: 0%
- pest or weed control at 15.625 g/ha [4]: 20%
- pest or weed control at 62.5 g/ha [4]: 60%
- pest or weed control at 250 g/ha [4]: 60%
- plant injury at 15.625 g/ha [5]: 10%
- plant injury at 62.5 g/ha [5]: 0%
- plant injury at 250 g/ha [5]: 50%
- pest or weed control at 15.625 g/ha [6]: 30%
- pest or weed control at 62.5 g/ha [6]: 60%
- pest or weed control at 250 g/ha [6]: 60%
- pest or weed control at 15.625 g/ha [7]: 0%
- pest or weed control at 62.5 g/ha [7]: 0%
- pest or weed control at 250 g/ha [7]: 10%
- pest or weed control at 15.625 g/ha [8]: 0%
- pest or weed control at 62.5 g/ha [8]: 0%
- pest or weed control at 250 g/ha [8]: 0%
- pest or weed control at 15.625 g/ha [9]: 0%
- pest or weed control at 62.5 g/ha [9]: 0%
- pest or weed control at 250 g/ha [9]: 20%

SMILES: CN1C[C@@H](c2ccc(C(F)(F)F)cc2)[C@H](C(=O)Nc2ccnc(Cl)c2Cl)C1=O (racemic) [Compound 1503]
- plant injury at 15.625 g/ha [1]: 0%
- plant injury at 62.5 g/ha [1]: 0%
- plant injury at 250 g/ha [1]: 0%
- pest or weed control at 15.625 g/ha [2]: 0%
- pest or weed control at 62.5 g/ha [2]: 0%
- pest or weed control at 250 g/ha [2]: 30%
- pest or weed control at 15.625 g/ha [3]: 0%
- pest or weed control at 62.5 g/ha [3]: 0%
- pest or weed control at 250 g/ha [3]: 0%
- pest or weed control at 15.625 g/ha [4]: 0%
- pest or weed control at 62.5 g/ha [4]: 10%
- pest or weed control at 250 g/ha [4]: 10%
- plant injury at 15.625 g/ha [5]: 0%
- plant injury at 62.5 g/ha [5]: 10%
- plant injury at 250 g/ha [5]: 10%
- pest or weed control at 15.625 g/ha [6]: 0%
- pest or weed control at 62.5 g/ha [6]: 20%
- pest or weed control at 250 g/ha [6]: 40%
- pest or weed control at 15.625 g/ha [7]: 0%
- pest or weed control at 62.5 g/ha [7]: 0%
- pest or weed control at 250 g/ha [7]: 0%
- pest or weed control at 15.625 g/ha [8]: 0%
- pest or weed control at 62.5 g/ha [8]: 0%
- pest or weed control at 250 g/ha [8]: 0%
- pest or weed control at 15.625 g/ha [9]: 0%
- pest or weed control at 62.5 g/ha [9]: 0%
- pest or weed control at 250 g/ha [9]: 0%
